{"source": "patent US20100212666A1", "about": "(priority 2006, published 2010)", "origin": "cited, not measured here", "conditions": "in vivo"}
{"smiles": "CC(C)c1cccc(C(C)C)c1O", "note": "[propofol]", "values": [{"measurement": "Effect on resting ventilation at 1 C50 for respiratory depression", "result": "minimally depresses resting ventilation"}, {"measurement": "Sedation at 1 C50 for respiratory depression", "result": "adequate sedation"}]}
